pIC50: −log10 of the molar value.
Legend:
[1] = molecular target: AXL (phospho-AXL, Gas6-stimulated A-172 glioblastoma cells) (Homo sapiens (Human), UniProt P30530); test: AXL autophosphorylation ELISA in A-172 cells (Example E); format: cell-based; conditions: cellular activity; AXL autophosphorylation ELISA in A-172 cells; read-out: Axl IC50
Method in brief: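 Phospho-AXL was measured by ELISA in lysates of Gas6-stimulated A-172 cells, starved 24 h in serum-free medium and exposed 1 h to an 8-point compound dilution at 0.3% DMSO.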

[2] = molecular target: Human Axl (residues H473-A894 with Q764R) (Homo sapiens (Human), UniProt P30530, Q764R); test: Human AXL kinase assay, 33P-phosphoryl transfer radiometric (Example A-1, KinaseProfiler); format: biochemical
Sequence of Human Axl (residues H473-A894 with Q764R) (P30530 473-894 Q764R): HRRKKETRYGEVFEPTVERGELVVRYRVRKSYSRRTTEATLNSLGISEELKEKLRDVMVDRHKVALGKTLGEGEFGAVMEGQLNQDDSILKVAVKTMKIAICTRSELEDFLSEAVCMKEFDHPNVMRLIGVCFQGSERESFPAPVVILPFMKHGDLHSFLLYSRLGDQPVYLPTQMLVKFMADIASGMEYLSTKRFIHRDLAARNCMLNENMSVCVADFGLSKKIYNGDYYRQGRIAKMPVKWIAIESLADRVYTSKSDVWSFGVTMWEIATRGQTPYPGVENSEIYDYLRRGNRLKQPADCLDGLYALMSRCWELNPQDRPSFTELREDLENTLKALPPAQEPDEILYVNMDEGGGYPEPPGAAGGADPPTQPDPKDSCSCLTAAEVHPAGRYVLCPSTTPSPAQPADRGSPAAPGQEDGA
Method: The reaction was initiated by the addition of the Mg/ATP mix. […] Incorporated ^33P was measured using the Wallac Microbeta scintillation counter (Perkin Elmer).

[3] = molecular target: Human Mer (residues R557-E882 with H628Q and R794A) (Homo sapiens, UniProt Q12866); test: Human Mer kinase assay, 33P-phosphoryl transfer radiometric (Example C-1, KinaseProfiler); format: biochemical; conditions: protocol of Example C-1 (compounds 21-27, 41-47, 99, 104)
Sequence of Human Mer (residues R557-E882 with H628Q and R794A) (Q12866 21-999 limits assumed, stated change not applied): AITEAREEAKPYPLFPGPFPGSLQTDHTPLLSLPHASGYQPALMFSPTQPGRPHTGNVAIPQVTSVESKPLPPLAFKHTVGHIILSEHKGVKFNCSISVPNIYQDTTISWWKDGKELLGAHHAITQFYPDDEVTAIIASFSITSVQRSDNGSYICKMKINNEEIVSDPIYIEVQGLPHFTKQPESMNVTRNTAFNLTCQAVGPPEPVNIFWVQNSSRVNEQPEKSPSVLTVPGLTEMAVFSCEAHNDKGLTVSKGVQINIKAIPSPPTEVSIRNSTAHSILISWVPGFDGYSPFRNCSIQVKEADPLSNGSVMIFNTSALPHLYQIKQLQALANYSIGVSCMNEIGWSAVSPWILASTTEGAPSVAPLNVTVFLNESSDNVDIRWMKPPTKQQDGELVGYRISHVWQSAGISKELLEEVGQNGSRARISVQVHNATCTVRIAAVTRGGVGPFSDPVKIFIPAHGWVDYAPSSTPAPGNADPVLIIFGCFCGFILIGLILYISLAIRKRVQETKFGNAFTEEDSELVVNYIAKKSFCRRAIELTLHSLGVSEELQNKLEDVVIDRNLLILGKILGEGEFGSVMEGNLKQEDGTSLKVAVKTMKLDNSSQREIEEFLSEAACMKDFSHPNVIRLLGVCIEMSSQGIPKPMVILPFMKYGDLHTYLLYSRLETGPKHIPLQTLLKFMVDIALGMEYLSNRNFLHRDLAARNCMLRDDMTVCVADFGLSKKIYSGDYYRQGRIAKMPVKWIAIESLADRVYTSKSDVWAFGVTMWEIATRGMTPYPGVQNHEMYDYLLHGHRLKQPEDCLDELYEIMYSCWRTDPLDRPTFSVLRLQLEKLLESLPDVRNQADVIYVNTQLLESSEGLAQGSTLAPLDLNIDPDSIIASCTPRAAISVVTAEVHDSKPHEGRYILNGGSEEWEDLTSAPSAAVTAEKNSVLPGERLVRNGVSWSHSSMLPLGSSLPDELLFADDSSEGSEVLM
Method: Kinase activity and compound inhibition were investigated using the ^33P-Phosphoryl transfer radiometric kinase assay, performed using the KinaseProfiler™ service of Eurofins Pharma Discovery Services UK Limited. Dose-response experiments were performed using nine compound concentrations in a 96-well microtiter plate. For each assay, all compounds were prepared to a 50× final assay concentration (50 μM) in 100% DMSO, then diluted in a half-log series, with the final top concentration at 1 μM. This working stock of the compound was added to the assay well as the first component in the reaction, followed by the remaining components as detailed in the following assay protocols below. The positive control wells (100% kinase activity) contain all components of the reaction including 2% DMSO (control for solvent effects), except the compound of interest. Blank wells contain all components of the reaction, with the reference inhibitor, staurosporine. This reference compound was used to abolish kinase activity and generated the 0% kinase activity base-line. IC50 values were calculated by nonlinear regression analysis using the sigmoidal dose-response (variable slope) curve fit on XLFit version 5.3 (ID Business Solutions).
Example C-1: Human Mer (residues R557-E882 with H628Q and R794A, 0.7 nM) was incubated with 8 mM MOPS pH 7.0, 0.2 mM EDTA, 30 mM NaCl, 250 μM […] (SEQ ID NO:2), 10 mM magnesium acetate, and 10 μM [γ-^33P-ATP]. The reaction was initiated by the addition of the Mg/ATP mix. After incubation for 40 minutes at room temperature, the reaction was stopped by the addition of phosphoric acid to a concentration of 0.5%. A reaction aliquot of 10 μL was then spotted onto a P30 filtermat and washed four times for 4 minutes in 0.425% phosphoric acid and once in methanol prior to drying and scintillation counting. Incorporated ^33P was measured using the Wallac Microbeta scintillation counter (Perkin Elmer).

[4] = molecular target: Human AXL (residues 464-885) (Homo sapiens (Human), UniProt P30530); test: Human AXL kinase assay, HTRF KinEase (Example A-2); format: biochemical
Sequence of Human AXL (residues 464-885) (P30530 473-894): as the sequence (P30530 473-894 Q764R) above, with R292Q counted along it
Method: Kinase activity and compound inhibition were also investigated using the HTRF® KinEase assay (Cisbio Cat #62TKOPEB) per manufacturer's instructions. In short, compounds were delivered in 300 nL volumes at 10 different concentrations in DMSO (3% final) to empty 384-well assay plates (Corning cat #3824). A mixture of enzyme, […] biotynlated peptide substrate, and buffer in 10 μL volume was added. The assay was started upon the addition of ATP (at Km). The 10 μL reaction was incubated at room temperature. The reaction was stopped upon the addition of detection buffer containing streptavidin-XL665 ([…]) and TK antibody-Eu3+(5 L).
Kinase activity normalized to DMSO (100% activity) and reference compound at […] and (0% activity) was calculated using the fluorescence ratio […]. IC50 values were calculated by nonlinear regression analysis using a 4-parameter logistic curve fit in ActivityBase XE (IDBS).
The mixture was added to the pre-plated compounds. […] The reaction was incubated at room temperature for 50 min and stopped upon the addition of SA-XL665 and TK-antibody both diluted in EDTA-containing kinase detection buffer (Cisbio). The kinase activity was calculated as stated above and the IC50 values were reported.

[5] = protocol of Example A-2 (other compounds)

Sequence of AXL (phospho-AXL, Gas6-stimulated A-172 glioblastoma cells) (P30530 26-894): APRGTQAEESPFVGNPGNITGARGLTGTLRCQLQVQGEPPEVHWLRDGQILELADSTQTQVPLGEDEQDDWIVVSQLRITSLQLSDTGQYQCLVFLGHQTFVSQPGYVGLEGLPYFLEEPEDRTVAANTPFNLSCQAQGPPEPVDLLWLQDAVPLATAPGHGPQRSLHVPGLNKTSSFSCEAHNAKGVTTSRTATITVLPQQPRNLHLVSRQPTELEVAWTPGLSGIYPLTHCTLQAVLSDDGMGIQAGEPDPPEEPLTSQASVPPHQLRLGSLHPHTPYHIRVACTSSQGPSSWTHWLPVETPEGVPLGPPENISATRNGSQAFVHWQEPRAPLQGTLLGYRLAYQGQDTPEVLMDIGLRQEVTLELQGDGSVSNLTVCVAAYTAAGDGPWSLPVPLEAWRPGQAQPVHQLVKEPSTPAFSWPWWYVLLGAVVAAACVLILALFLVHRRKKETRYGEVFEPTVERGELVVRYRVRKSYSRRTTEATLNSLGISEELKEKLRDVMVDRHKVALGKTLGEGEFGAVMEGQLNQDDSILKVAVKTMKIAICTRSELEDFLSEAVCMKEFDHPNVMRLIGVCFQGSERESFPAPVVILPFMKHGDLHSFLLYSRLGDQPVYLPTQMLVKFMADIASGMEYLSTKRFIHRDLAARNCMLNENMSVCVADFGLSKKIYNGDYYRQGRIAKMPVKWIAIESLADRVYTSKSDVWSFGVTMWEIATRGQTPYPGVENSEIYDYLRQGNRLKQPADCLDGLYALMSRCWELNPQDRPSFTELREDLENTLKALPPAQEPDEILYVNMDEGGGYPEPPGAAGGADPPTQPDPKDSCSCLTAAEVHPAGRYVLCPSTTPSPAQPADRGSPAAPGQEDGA

| Structure (SMILES) | pIC50 [1] | pIC50 [2] | pIC50 [3] | pIC50 [4, 5] | pIC50 ([4]; protocol of Example A-2) |
| --- | --- | --- | --- | --- | --- |
| COc1cc2nccc(Oc3ccc(NC(=O)c4c[nH]c(=S)n(-c5ccc(F)cc5)c4=O)cc3F)c2nc1OC [Compound 104, N-[4-[(6,7-Dimethoxy-1,5-naphthyridin-4-yl)oxy]-3-fluorophenyl]-3-(4-fluorophenyl)-4-oxo-2-sulfanylidene-1H-pyrimidine-5-carboxamide] | > 7.00 | < 6.52 | < 6.52 |  |  |
| COCCOc1ccc2nccc(Oc3ccc(NC(=O)c4cnc(C)c(-c5ccc(F)cc5)c4O)cc3F)c2n1 [Compound 348, N-[3-fluoro-4-[[6-(2-methoxyethoxy)-1,5-naphthyridin-4-yl]oxy]phenyl]-5-(4-fluorophenyl)-4-hydroxy-6-methylpyridine-3-carboxamide] | > 7.00 |  |  | > 7.00 |  |
| C=C(C)c1cnc2c(Oc3ccc(NC(=O)c4c(C)cc(C)n(-c5ccc(F)cc5)c4=O)cc3F)ccnc2c1 [Compound 457, 1-(4-fluorophenyl)-N-[3-fluoro-4-[(7-prop-1-en-2-yl-1,5-naphthyridin-4-yl)oxy]phenyl]-4,6-dimethyl-2-oxopyridine-3-carboxamide] | > 7.00 |  |  |  | > 7.00 |
| COc1cnc2c(Oc3ccc(NC(=O)c4cn(C)c(C)c(-c5ccc(F)cc5C)c4=O)cc3)ccnc2c1 [Compound 187, 5-(4-Fluoro-2-methylphenyl)-N-[4-[(7-methoxy-1,5-naphthyridin-4-yl)oxy]phenyl]-1,6-dimethyl-4-oxopyridine-3-carboxamide] | > 7.00 |  |  | > 7.00 |  |

Source: patent US12371428B2 (Exelixis, Inc., priority 2019, dated 2025)
